In US6689883B1, “Substituted pyridines and pyridazines with angiogenesis inhibiting activity” (Bayer Pharmaceuticals Corporation, priority 1999, dated 2004):
pIC50: −log10 of the molar value.

What was measured:
[1] = biological target: T1, cytosolic kinase domain of KDR kinase (Homo sapiens, UniProt P35968); assay: KDR Assay (ELISA, poly(Glu4;Tyr1) phosphorylation); type: biochemical; conditions: 3.3 μM ATP, 60 minutes at room temperature
T1 construct: The cytosolic kinase domain of KDR kinase was expressed as a 6His fusion protein in Sf9 insect cells; 6His; made in house; host or cells: Sf9 insect cells
Description: The cytosolic kinase domain of KDR kinase was expressed as a 6His fusion protein in Sf9 insect cells. The KDR kinase domain fusion protein was purified over a Ni++ chelating column. Ninety-six well ELISA plates were coated with 5 μg poly(Glu4;Tyr1) (Sigma Chemical Co., St Louis, Mo.) in 100 μl HEPES buffer (20 mM HEPES, pH 7.5, 150 mM NaCl, 0.02% Thimerosal) at 4° overnight. Before use, the plate was washed with HEPES, NaCl buffer and the plates were blocked with 1% BSA, 0.1% Tween 20 in HEPES, NaCl buffer.
Test compounds were serially diluted in 100% DMSO from 4 mM to 0.12 μM in half-log dilutions. These dilutions were further diluted twenty fold in H2O to obtain compound solutions in 5% DMSO. Following loading of the assay plate with 85 μl of assay buffer (20 mM HEPES, pH 7.5, 100 mM KCl, 10 mM MgCl2, 3 mM MnCl2, 0.05% glycerol, 0.005% Triton X-100, 1 mM-mercaptoethanol, with or without 3.3 μM ATP), 5 μl of the diluted compounds were added to a final assay volume of 100 μl. Final concentrations were between 10 μM, and 0.3 nM in 0.25% DMSO. The assay was initiated by the addition of 10 μl (30 ng) of KDR kinase domain.
The assay was incubated with test compound or vehicle alone with gentle agitation at room temperature for 60 minutes. The wells were washed and phosphotyrosines (PY) were probed with an anti-phosphotyrosine (PY), mAb clone 4G10 (Upstate Biotechnology, Lake Placid, N.Y.). PY/anti-PY complexes were detected with an anti-mouse IgG/HRP conjugate (Amersham International plc, Buckinghamshire, England). Phosphotyrosine was quantitated by incubating with 100 μl 3,3′,5,5′tetramethylbenzidine solution (Kirkegaard and Perry, TMB Microwell 1 Component peroxidase substrate). Color development was arrested by the addition of 100 μl 1% HCl-based stop solution (Kirkegaard and Perry, TMB 1 Component Stop Solution).
Optical densities were determined spectrophotometrically at 450 nm in a 96-well plate reader, SpectraMax 250 (Molecular Devices). Background (no ATP in assay) OD values were subtracted from all ODs and the percent inhibition was calculated according to the equation: [formula]

[2] = biological target: T2, full length KDR receptor in NIH3T3 cells (Homo sapiens, UniProt P35968); assay: Cell Mechanistic Assay-Inhibition of 3T3 KDR Phosphorylation; type: cell-based; conditions: NIH3T3 cells expressing KDR, VEGF 30 ng/ml stimulation
T2 construct: NIH3T3 cells expressing the full length KDR receptor were grown in DMEM; expressed in transfected cells; host or cells: NIH3T3 cells (G418 selection)
Description: NIH3T3 cells expressing the full length KDR receptor were grown in DMEM (Life Technologies, Inc., Grand Island, N.Y.) supplemented with 10% newborn calf serum, low glucose, 25 mM/L sodium pyruvate, pyridoxine hydrochloride and 0.2 mg/ml of G418 (Life Technologies Inc., Grand Island, N.Y.). The cells were maintained in collagen I-coated T75 flasks (Becton Dickinson Labware, Bedford, Mass.) in a humidified 5% CO2 atmosphere at 37° C.
Fifteen thousand cells were plated into each well of a collagen I-coated 96-well plate in the DMEM growth medium. Six hours later, the cells were washed and the medium was replaced with DMEM without serum. After overnight culture to quiesce the cells, the medium was replaced by Dulbecco's phosphate-buffered saline (Life Technologies Inc., Grand Island, N.Y.) with 0.1% bovine albumin (Sigma Chemical Co., St Louis, Mo.). After adding various concentrations (0-300 nM) of test compounds to the cells in 1% final concentration of DMSO, the cells were incubated at room temperature for 30 minutes. The cells were then treated with VEGF (30 ng/ml) for 10 minutes at room temperature. Following VEGF stimulation, the buffer was removed and the cells were lysed by addition of 150 μl of extraction buffer (50 mM Tris, pH 7.8, supplemented with 10% glycerol, 50 mM BGP, 2 mM EDTA, 10 mM NaF, 0.5 mM NaVO4, and 0.3% TX-100) at 4° C. for 30 minutes.
To assess receptor phosphorylation, 100 microliters of each cell lysate was added to the wells of an ELISA plate precoated with 300 ng of antibody C20 (Santa Cruz Biotechnology, Inc., Santa Cruz, Calif.). Following a 60-minute incubation, the plate was washed and bound KDR was probed for phosphotyrosine using an anti-phosphotyrosine mAb clone 4G10 (Upstate Biotechnology, Lake Placid, N.Y.). The plate was washed and wells were incubated with anti-mouse IgG/HRP conjugate (Amersham International plc, Buckinghamshire, England) for 60 minutes. Wells were washed and phosphotyrosine was quantitated by addition of 100 μl per well of 3,3′,5,5′tetramethylbenzidine (Kirkegaard and Perry, TMB Microwell 1 Component peroxidase substrate) solution. Color development was arrested by the addition of 100 μl 1% HCl based stop solution (Kirkegaard and Perry, TMB 1 Component Stop Solution).
Optical densities (OD) were determined spectrophotometrically at 450 nm in a 96-well plate reader (SpectraMax 250, Molecular Devices). Background (no VEGF added) OD values were subtracted from all ODs and percent inhibition was calculated according to the equation: [formula]
IC50s were determined on some of the exemplary materials with a least squares analysis program using compound concentration versus percent inhibition. Compounds that have IC50≦20 nM in this assay include those of Examples 2, 6, 10, 11, 14, 23, 96, 101, 102, 103, 104, 105. Compounds that have IC50 values between 20 nM and 50 nM include those of examples 1, 4, 8, 9, 12, 13, 17, 24, 93, 98. Compounds that have IC50 values between 50 nM and 400 nM include those of examples 97, 99, and 100.

T1 sequence (P35968 834-1162 limits assumed): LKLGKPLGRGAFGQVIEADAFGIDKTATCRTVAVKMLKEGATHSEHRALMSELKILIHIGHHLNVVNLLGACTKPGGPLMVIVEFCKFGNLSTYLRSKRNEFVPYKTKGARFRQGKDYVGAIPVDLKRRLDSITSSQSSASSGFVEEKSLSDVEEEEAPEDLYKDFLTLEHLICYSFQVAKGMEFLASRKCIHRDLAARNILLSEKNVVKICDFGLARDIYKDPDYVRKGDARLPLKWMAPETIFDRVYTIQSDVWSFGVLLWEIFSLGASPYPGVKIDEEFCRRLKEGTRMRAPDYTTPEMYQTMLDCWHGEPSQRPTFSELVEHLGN
T2 sequence (P35968 20-1356): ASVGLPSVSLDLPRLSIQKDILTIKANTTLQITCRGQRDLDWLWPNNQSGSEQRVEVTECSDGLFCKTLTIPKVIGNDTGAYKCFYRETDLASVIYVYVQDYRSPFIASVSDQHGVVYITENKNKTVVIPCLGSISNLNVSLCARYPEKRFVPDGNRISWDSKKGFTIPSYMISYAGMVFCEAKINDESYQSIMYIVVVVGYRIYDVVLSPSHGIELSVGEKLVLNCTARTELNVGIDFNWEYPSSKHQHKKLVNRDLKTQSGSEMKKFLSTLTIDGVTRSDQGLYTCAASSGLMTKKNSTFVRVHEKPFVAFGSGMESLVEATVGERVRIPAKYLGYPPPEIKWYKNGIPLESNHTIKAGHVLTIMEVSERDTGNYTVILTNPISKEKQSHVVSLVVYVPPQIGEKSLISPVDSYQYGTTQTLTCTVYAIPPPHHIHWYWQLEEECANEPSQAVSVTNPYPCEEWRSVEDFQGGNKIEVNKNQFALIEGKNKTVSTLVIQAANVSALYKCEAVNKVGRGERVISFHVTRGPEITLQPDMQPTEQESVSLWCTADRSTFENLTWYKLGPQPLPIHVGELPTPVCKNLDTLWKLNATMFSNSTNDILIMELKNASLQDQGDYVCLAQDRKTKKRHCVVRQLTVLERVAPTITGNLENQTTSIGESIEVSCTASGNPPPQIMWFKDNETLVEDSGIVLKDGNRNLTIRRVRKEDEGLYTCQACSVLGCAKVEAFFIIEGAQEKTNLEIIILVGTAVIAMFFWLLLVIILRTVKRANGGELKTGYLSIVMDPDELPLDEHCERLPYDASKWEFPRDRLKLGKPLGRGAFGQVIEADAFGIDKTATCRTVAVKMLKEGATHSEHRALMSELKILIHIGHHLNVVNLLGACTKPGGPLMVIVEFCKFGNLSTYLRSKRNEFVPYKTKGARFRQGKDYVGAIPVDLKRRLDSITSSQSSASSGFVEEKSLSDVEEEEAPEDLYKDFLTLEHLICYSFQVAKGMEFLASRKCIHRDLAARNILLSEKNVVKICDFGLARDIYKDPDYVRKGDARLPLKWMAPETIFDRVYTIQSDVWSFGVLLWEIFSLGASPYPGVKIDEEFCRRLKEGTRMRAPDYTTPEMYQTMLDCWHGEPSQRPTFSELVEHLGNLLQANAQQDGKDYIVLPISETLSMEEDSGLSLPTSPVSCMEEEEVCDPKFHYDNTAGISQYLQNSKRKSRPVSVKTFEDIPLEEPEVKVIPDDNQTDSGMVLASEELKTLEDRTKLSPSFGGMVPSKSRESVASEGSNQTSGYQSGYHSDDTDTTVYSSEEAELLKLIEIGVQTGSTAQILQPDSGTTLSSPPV

| Compound | pIC50 [1] | pIC50 [2] | melting point |
| --- | --- | --- | --- |
| c1ccc2c(Nc3ccc4c(c3)CCC4)ncc(Sc3ccncc3)c2c1 [Example 2, 1-(indan-5-ylamino)-4-(4-pyridylthio)isoquinoline] | ≥ 7.00 | ≥ 7.70 |  |
| c1ccc2c(Nc3ccc4c(c3)CCC4)ncc(Cc3ccncc3)c2c1 [Example 6, 1-(indan-5-ylamino)-4-(4-pyridylmethyl)-isoquinoline] | ≥ 7.00 | ≥ 7.70 |  |
| Clc1ccc(Nc2nnc(OCc3ccncc3)c3sccc23)cc1 [Example 8, 4-(4-chlorophenylamino)-7-(4-pyridylmethoxy)thieno-[2,3-d]pyridazine] | ≥ 7.00 |  | 203 to 205 °C (dec.) |
| Clc1ccc(Nc2nnc(OCc3ccncc3)c3occc23)cc1 [Example 9, 4-(4-chlorophenylamino)-7-(4-pyridylmethoxy)furo[2,3-d]pyridazine] | ≥ 7.00 | 7.30 to 7.70 |  |
| NC(=O)c1cc(COc2nnc(Nc3ccc(Cl)cc3)c3ccsc23)ccn1 [Example 10, 4-(4-chlorophenylamino)-7-(2-aminocarbonyl-4-pyridylmethoxy)thieno-[2,3-d]pyridazine] | ≥ 7.00 | ≥ 7.70 | 233 °C |
| CNC(=O)c1cc(COc2nnc(Nc3ccc(Cl)cc3)c3ccsc23)ccn1 [Example 11, 4-(4-chlorophenylamino)-7-(2-methylaminocarbonyl-4-pyridylmethoxy)thieno-[2,3-d]pyridazine] | ≥ 7.00 | ≥ 7.70 |  |
| CNC(=O)c1cc(COc2nnc(Nc3ccc(Cl)cc3)c3ccoc23)ccn1 [Example 14, 4-(4-chlorophenylamino)-7-(2-methylaminocarbonyl-4-pyridylmethoxy)furo-[2,3-d]pyridazine] | ≥ 7.00 | ≥ 7.70 |  |
| Clc1ccc(Nc2nnc(Nc3ccc4ncsc4c3)c3sccc23)cc1 [Example 23] |  | ≥ 7.70 |  |
| Clc1ccc(Nc2nnc(Nc3ccc4nn[nH]c4c3)c3ccccc23)cc1 [Example 96] | ≥ 7.00 | ≥ 7.70 |  |
| Brc1cccc(Nc2nnc(Nc3ccc4ncsc4c3)c3ccccc23)c1 [Example 101] | ≥ 7.00 | ≥ 7.70 |  |
| CC(C)c1ccc(Nc2nnc(Nc3ccc4ncsc4c3)c3ccccc23)cc1 [Example 102] | ≥ 7.00 | ≥ 7.70 |  |
| COc1cccc(Nc2nnc(Nc3ccc4ncsc4c3)c3ccccc23)c1 [Example 103] | ≥ 7.00 | ≥ 7.70 |  |
| Clc1ccc(Nc2nnc(Nc3ccc4ncsc4c3)c3ccccc23)cc1 [Example 105] | ≥ 7.00 | ≥ 7.70 |  |
